Data on 21 compounds can be found in article PMC8105289 (European journal of medicinal chemistry, 2021).

A short description of series [1]: Parallel artificial membrane permeability assay. The conditions noted are these: for Papp: PAMPA; for PAMPA logPapp: log of the apparent permeability coefficient; for PAMPA % retention (membrane retention): Corning Gentest pre-coated PAMPA plate, HPLC-UV.
Another series can be described thus: potentiometric titration. The following applies: not told.
A short description of series [2]: logP / logD7.4 by potentiometric titration. The following applies: for logD: n-octanol/aqueous buffer, pH 7.4; for logP: n-octanol/water.
Series [3] can be described thus: pKa by potentiometric titration.
A short description of series [4]: logD7.4 by shake-flask method. The following applies: for logD: n-octanol/aqueous buffer, pH 7.4.
The nature of another series: shake-flask. The following applies: not told.
The mark [5] stands for this setting: ionic strength adjusted water (0.15 M KCl), pKa units higher than the pKa value of 9.
[6] abbreviates: potentiometric titration, Sirius T3.
Where [7] appears, read: potentiometric titration, Sirius T3, 0.15 M KCl.
The mark [8] stands for this setting: ionic strength adjusted water (0.15 M KCl), pKa, potentiometric titration, Sirius T3, 0.15 M KCl.

Molecules are shown by their SMILES. Marks after values point to notes of the source that are not given here. Some results are limits rather than exact numbers.

For `CS(=O)(=O)NC1(CCc2ccccc2)CS(=O)(=O)C1` [Compound 24, N-(1,1-Dioxido-3-phenethylthietan-3-yl)methanesulfonamide], in series [1], the Papp came to 3.66 ×10⁻⁶ cm/s and the “PAMPA logPapp” value is −5.4. In “potentiometric titration”, the “log partition n-octanol / aqueous buffer pH 7.4” value is given as 1.03 log10 concentration ratio and the “log partition n-octanol / water (0.15 M KCl)” value is 1.03±0.01 log10 concentration ratio. In series [2], this compound gave a logD of 1.03 and a logP of 1.03 ± 0.01. This compound gave a pKa in series [3] (setting [5]) above 5.
For the compound `CN(C)S(=O)(=O)Nc1cn(-c2ccccc2)nn1` [Compound 32, N-(1-Phenyl-1H-1,2,3-triazol-4-yl)-N,N-dimethylaminesulfonamide], in series [1], the “PAMPA logPapp” value was −5.42. In “potentiometric titration”, the “log partition n-octanol / aqueous buffer pH 7.4” value is 0.69 log10 concentration ratio and the “log partition n-octanol / water (0.15 M KCl)” value amounted to 1.72±0.01 log10 concentration ratio. For the same compound, in series [2] (setting [6]), the logP was determined as 1.72±0.01. The pKa in series [3] (setting [7]) worked out at 6.42±0.01.
With `CN(C)S(=O)(=O)NC1(CCc2ccccc2)CSC1` [Compound 20, N,N-Dimethyl-[3-(2-phenylethyl)thietan-3-yl]sulfamoyl-amine], in series [1], the “PAMPA % retention (membrane retention)” value is given as 0.373%, the Papp came to 11.4 ×10⁻⁶ cm/s and the “PAMPA logPapp” value was −4.9. The logD in series [4] was determined as 2.83. Moreover, in the series “shake-flask”, the “log partition n-octanol / aqueous buffer pH 7.4” value worked out at 2.83 log10 concentration ratio.
Consider `CN(C)S(=O)(=O)NC1(CCc2ccccc2)CS(=O)(=O)C1` [Compound 26, 3-[(Dimethylsulfamoyl)amino]-3-(2-phenylethyl)-1lambda6-thietane-1,1-dione], for which, in series [1], the “PAMPA % retention (membrane retention)” value was 0.105%, the Papp turned out to be 4.43 ×10⁻⁶ cm/s and the “PAMPA logPapp” value was −5.35. In addition, in the series “potentiometric titration”, the “log partition n-octanol / aqueous buffer pH 7.4” value worked out at 1.82 log10 concentration ratio and the “log partition n-octanol / water (0.15 M KCl)” value is reported as 1.83±0.05 log10 concentration ratio. In series [2], this compound registered a pH-dependent lipophilicity (logD) of 1.82 and a logP of 1.83 ± 0.05.
`O=S1(=O)CC(CCc2ccccc2)(NS(=O)(=O)c2ccccc2)C1` [Compound 25, N-(1,1-Dioxido-3-phenethylthietan-3-yl)benzenesulfonamide] registered a logD in series [4] of 1.89. Further, the “log partition n-octanol / aqueous buffer pH 7.4” value in the series “shake-flask” turned out to be 1.89 log10 concentration ratio.
Consider `CN(C)S(=O)(=O)NC1(CCc2ccccc2)COC1` [Compound 17, N,N-Dimethyl-[3-(2-phenylethyl)oxetane-3-yl]sulfamoyl-amine], for which, in series [1], the Papp came out at 10.2 ×10⁻⁶ cm/s and the “PAMPA logPapp” value is recorded as −4.99. In series [4], the logD is 1.96. The “log partition n-octanol / aqueous buffer pH 7.4” value in the series “shake-flask” was found to be 1.96 log10 concentration ratio.
`CS(=O)(=O)NC1(CCc2ccccc2)CS(=O)C1` (stereo not drawn): in the series “potentiometric titration”, the “log partition n-octanol / aqueous buffer pH 7.4” value amounted to 0.87 log10 concentration ratio and the “log partition n-octanol / water (0.15 M KCl)” value is reported as 0.88±0.02 log10 concentration ratio.
Turning to `O=S(=O)(Nc1cn(-c2ccccc2)nn1)c1ccccc1` [Compound 31, N-(1-Phenyl-1H-1,2,3-triazol-4-yl)benzenesulfonamide], in series [1], the Papp was 4.09 ×10⁻⁶ cm/s and the “PAMPA logPapp” value is on record as −5.39. Moreover, in the series “potentiometric titration”, the “log partition n-octanol / aqueous buffer pH 7.4” value is 1.06 log10 concentration ratio and the “log partition n-octanol / water (0.15 M KCl)” value was found to be 2.55±0.04 log10 concentration ratio. In series [2], this compound came in with a logD of 1.06 and a log partition coefficient (logP) of 2.55 ± 0.04.
On to `CS(=O)(=O)N[C@]1(CCc2ccccc2)C[S@+]([O-])C1` [Compound 21, cis-N-(1-Oxido-3-phenethylthietan-3-yl)methanesulfonamide], for which the logP in series [2] (setting [6]) is on record as 0.88±0.02. The “pKa units higher than the pKa value of 9” value in series [3] is listed as above 5. In series [3] (setting [7]), the pKa is given as 9.87±0.01.
For the compound `O=S(=O)(NC1(CCc2ccccc2)CSC1)c1ccccc1` [Compound 19, N-(3-Phenethylthietan-3-yl)benzenesulfonamide], the logD in series [4] worked out at 2.96. In “shake-flask”, the “log partition n-octanol / aqueous buffer pH 7.4” value came to 2.96 log10 concentration ratio. Moreover, the pKa in series [3] (setting [8]) is above 12.
Turning to `CN(C)S(=O)(=O)N[C@]1(CCc2ccccc2)C[S@+]([O-])C1` [Compound 23, cis-3-[(Dimethylsulfamoyl)amino]-3-(2-phenylethyl)-1lambda4-thietan-1-one], in series [1], the “PAMPA logPapp” value is given as −5.47. Also, in series [4] (n-octanol/aqueous buffer pH 7.4, shake-flask assay run by Analiza), the logD7.4 was 1.45^†. Moreover, the pKa in series [3] (setting [7]) is 10.33±0.02.
For `O=S(=O)(NC1(CCc2ccccc2)COC1)c1ccccc1` [Compound 16, N-(3-Phenethyloxetan-3-yl)benzenesulfonamide], in series [1], the “PAMPA % retention (membrane retention)” value amounted to 0.260%, the Papp turned out to be 7.06 ×10⁻⁶ cm/s and the “PAMPA logPapp” value is recorded as −5.2. In series [4], this compound had a logD of 2.76. Also, in “shake-flask”, the “log partition n-octanol / aqueous buffer pH 7.4” value came out at 2.76 log10 concentration ratio.
For `O=S(=O)(Nc1cc(-c2ccccc2)on1)c1ccccc1` [Compound 28, N-(5-Phenylisoxazol-3-yl)benzenesulfonamide], in series [1], the Papp turned out to be 5.79 ×10⁻⁶ cm/s and the “PAMPA logPapp” value was −5.24. Besides, in “potentiometric titration”, the “log partition n-octanol / aqueous buffer pH 7.4” value amounted to 0.99 log10 concentration ratio and the “log partition n-octanol / water (0.15 M KCl)” value was determined as 1.76±0.03 log10 concentration ratio. In series [2], this compound registered a logD of 0.99 and a logP of 1.76 ± 0.03.
For the compound `CC(=O)NC1(CCc2ccccc2)CS(=O)(=O)C1` [Compound 14, N-(1,1-Dioxido-3-phenethylthietan-3-yl)acetamide], in series [1], the Papp stood at 2.11 ×10⁻⁶ cm/s and the “PAMPA logPapp” value is on record as −5.68. Also, the logD in series [4] is 1.18. Also, the “log partition n-octanol / aqueous buffer pH 7.4” value in the series “shake-flask” was determined as 1.18 log10 concentration ratio. Moreover, in series [3] (setting [8]), the pKa is above 12.
For `CN(C)S(=O)(=O)Nc1cc(-c2ccccc2)on1` [Compound 29, N-(5-Phenylisoxazol-3-yl)-N,N-dimethylaminesulfonamide], in series [1], the “PAMPA % retention (membrane retention)” value amounted to 0.131%. Moreover, in “potentiometric titration”, the “log partition n-octanol / aqueous buffer pH 7.4” value is reported as 0.42 log10 concentration ratio and the “log partition n-octanol / water (0.15 M KCl)” value is listed as 0.85±0.01 log10 concentration ratio. The compound further gave a logP in series [2] (setting [6]) of 0.85±0.01. In series [3] (setting [7]), this compound returned a pKa of 5.62±0.02.
`CC1(NS(=O)(=O)CCc2ccccc2)COC1` [Compound 13, N-(3-Methyloxetan-3-yl)-2-phenylethane-1-sulfonamide]: in series [1], the Papp came to 6.79 ×10⁻⁶ cm/s and the “PAMPA logPapp” value was −5.17. In “potentiometric titration”, the “log partition n-octanol / aqueous buffer pH 7.4” value was 1.58 log10 concentration ratio and the “log partition n-octanol / water (0.15 M KCl)” value was determined as 1.58±0.06 log10 concentration ratio. In series [2], the logD was 1.58 and the logP worked out at 1.58 ± 0.06. Moreover, the ΔlogPcyclohexane in the series “ΔlogP” (logPoctanol-water − logPcyclohexane-water) is on record as 1.87 ± 0.04. The compound further came in with a ΔlogPheptane in the series “ΔlogP” (logPoctanol-water − logPheptane-water) of 1.60 ± 0.05. For the same compound, the ΔlogPtoluene in the series “ΔlogP” (logPoctanol-water − logPtoluene-water) came out at 0.43 ± 0.04.
As for `CS(=O)(=O)Nc1cc(-c2ccccc2)on1` [Compound 27, N-(5-Phenylisoxazol-3-yl)methanesulfonamide], in series [1], the Papp was 1.16 ×10⁻⁶ cm/s and the “PAMPA logPapp” value is given as −5.94. Also, in “potentiometric titration”, the “log partition n-octanol / aqueous buffer pH 7.4” value was −0.42 log10 concentration ratio and the “log partition n-octanol / water (0.15 M KCl)” value is reported as 0.58±0.02 log10 concentration ratio. For the same compound, in series [2], the logD was -0.42 and the log partition coefficient (logP) turned out to be 0.58 ± 0.02.
For the compound `CS(=O)(=O)Nc1cn(-c2ccccc2)nn1` [Compound 30, N-(1-Phenyl-1H-1,2,3-triazol-4-yl)methanesulfonamide], in series [1], the apparent permeability (Papp) is 2.42 ×10⁻⁶ cm/s and the “PAMPA logPapp” value is −5.62. In addition, in “potentiometric titration”, the “log partition n-octanol / aqueous buffer pH 7.4” value is 0.06 log10 concentration ratio and the “log partition n-octanol / water (0.15 M KCl)” value came out at 1.16±0.03 log10 concentration ratio. In series [2], this compound came in with a logD of 0.06 and a logP of 1.16 ± 0.03.
Take `CN(C)S(=O)(=O)NC1(CCc2ccccc2)CS(=O)C1` (stereo not drawn): the “log partition n-octanol / aqueous buffer pH 7.4” value in “shake-flask” stood at 1.45 log10 concentration ratio.
As to `CS(=O)(=O)NC1(CCc2ccccc2)CSC1` [Compound 18, N-(3-Phenethylthietan-3-yl)methanesulfonamide], in series [1], the Papp turned out to be 14.6 ×10⁻⁶ cm/s and the “PAMPA logPapp” value is on record as −4.8. Also, the logD in series [4] amounted to 2.44. In addition, the “log partition n-octanol / aqueous buffer pH 7.4” value in “shake-flask” was found to be 2.44 log10 concentration ratio. This compound returned a pKa in series [3] (setting [5]) above 5.
Consider `O=S1CC(CCc2ccccc2)(NS(=O)(=O)c2ccccc2)C1` (stereo not drawn), for which, in “shake-flask”, the “log partition n-octanol / aqueous buffer pH 7.4” value turned out to be 0.76 log10 concentration ratio.
